# Source: patent publication US20160045606A1, “PARTIALLY-DENATURED PROTEIN HYDROGELS” (Northwestern University, priority 2014, published 2016)
# Entries after “also recorded” stand apart in the source; their conditions may differ.
# Tests used:
# [1] = target: N-form albumin (TRP 213 atRA binding site) (Homo sapiens, UniProt P02768); conditions: literature estimate (Maiti et al. 2006), TRP 213 site on N-form albumin; cited from earlier work
# [2] = test system: Human aortic smooth muscle cells (HASMC); assay: Scratch test migration assay; format: cell-based; conditions: cells exposed directly to 25 ng/mL atRA in media, 24 hr scratch wound, serum starved, vs negative control
# Procedure: Human aortic smooth muscle cells (HASMC) (Lonza, Basel, Switzerland) (passage 5) were cultured in SmGM-2 media. All cells were cultured at 37° C. in a humidified incubator containing 5% CO2. HASMCs (seeding density 1×10^4 cells/cm2) were seeded onto TCP surfaces and grown until 90% confluent. Cell culture media was changed every 2 days until confluence after which serum-free SmGM-2 media was used to create a nutrient starved environment for 24 hrs. A vertical scratch was made with a sterile 200 uL pipette tip in the confluent HASMC layer, rinsed with warm PBS, and replaced with 1 mL SmGM-2 media. The underside of the dish was marked near the wound area to aid in identification. Wells were randomly placed into 4 groups which received either a 100 uL dose of eluted material from atRA loaded PBSA or TBSA release study at day 10, a 100 uL dose of 24 ng atRA dissolved in PBS, or a control 100 uL of PBS. A light microscope (Nikon Eclipse TE2000-U) was used to capture images using Image Pro 5.0 software (MediaCybernetics, Bethesda, Md.) of the wound area immediately at day 0 and at various times until the control wound closed at 24 hrs. Wound areas were determined using an automated wound area measurement macro with the ImageJ 1.43r software (NIH, Bethesda, Md.). The measurement of migration was determined by subtracting the cell-free area at day 0 from the cell-free area at 24 hrs. […]
# [3] = target: N-form albumin (Bos taurus, UniProt P02769); assay: atRA binding by tryptophan fluorescence quenching at 340 nm, BSA at pH 7.4; set-up: species or system bovine
# Chain of N-form albumin (P02769 25-607): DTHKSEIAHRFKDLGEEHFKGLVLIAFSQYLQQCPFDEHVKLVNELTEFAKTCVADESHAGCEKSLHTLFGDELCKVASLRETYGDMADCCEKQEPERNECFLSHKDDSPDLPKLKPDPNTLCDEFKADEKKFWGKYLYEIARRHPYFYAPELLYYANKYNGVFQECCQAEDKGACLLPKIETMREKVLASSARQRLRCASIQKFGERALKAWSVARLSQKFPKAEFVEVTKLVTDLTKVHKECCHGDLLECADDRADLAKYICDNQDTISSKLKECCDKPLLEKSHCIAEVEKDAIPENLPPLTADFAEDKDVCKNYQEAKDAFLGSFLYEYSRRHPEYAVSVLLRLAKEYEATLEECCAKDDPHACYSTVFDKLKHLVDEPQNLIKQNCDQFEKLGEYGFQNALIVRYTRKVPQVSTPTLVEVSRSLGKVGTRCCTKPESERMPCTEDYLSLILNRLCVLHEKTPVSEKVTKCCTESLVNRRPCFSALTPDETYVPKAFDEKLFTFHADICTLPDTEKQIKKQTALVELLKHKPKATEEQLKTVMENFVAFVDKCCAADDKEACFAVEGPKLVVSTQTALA
# Procedure: (§1) All trans retinoic acid (atRA, 82625, Sigma, St. Louis, 206 MO) was added to solutions of BSA with molar ratio concentrations including 0:1, 0.08:1, 0.1:1, 0.13:1, 0.2:1, 0.4:1, 0.8:1, 1.2:1, 1.6:1, and 2:1 (atRA:BSA). A baseline fluorescence intensity of BSA at pH 7.4 and 3.5 measured at 340 nm with excitation at 295 nm was recorded (n=4 for each molar ratio concentration) as reported in the literature (Maiti et al. Int J Biol Macromol. 2006; 38(3-5):197-202; herein incorporated by reference in its entirety) using the plate reader Tecan Safire II (Tecan, Maennedorf, Switzerland). Then, atRA binding to BSA at pH 7.4 and 3.5 was assessed immediately after the addition of atRA at the different molar ratios. For measuring atRA release from hydrogel disks, a higher molar ratio concentration of 8:1 (atRA:BSA) was used when incorporating atRA into BSA precursor solutions before gelation. Precursor solutions were processed as normal to fabricate atRA-loaded PBSA and TBSA hydrogel disks with a final volume of 0.5 mL. Disks were submerged in 10 mL PBS at 37° C. for atRA release studies. Eluates were collected and replaced at 1, 3, 6, 12, 24, 48, 72, 144, and 240 hour sampling times and fluorescence intensity of atRA at 340 nm and BSA at 280 nm was collected with a NanoDrop™ 2000 C Spectrophotometer (ThermoScientific™, Waltham, Mass.).
# [4] = target: F-form albumin (Bos taurus, UniProt P02769); assay: atRA binding by tryptophan fluorescence quenching at 340 nm, BSA at pH 3.5; set-up: species or system bovine; conditions: pH 3.5, excitation 295 nm
# Chain of F-form albumin (P02769 25-607): as above
# Procedure: as §1
# [5] = In vivo subcutaneous rat model (biocompatibility); set-up: species or system Sprague-Dawley rats; conditions: 0.5 mL subcutaneous injection
# Procedure: Eight female Sprague-Dawley rats (Harlan Laboratories, Inc.) weighing 150-175 g were used for in vivo biocompatibility testing of the BSA gels. Four rats were randomly assigned into two groups for explant time points at 4 days and 4 weeks for evaluation of the acute and chronic inflammatory response. Animals were anesthetized using the inhalant machine Impact 6 (Vetequip Inc., Pleasanton, Calif.). Isofluorane was administered at a concentration of 2% with an oxygen flow rate of 2 L/min. Following anesthesia; the backs of the animals were shaved and then disinfected with […] followed by alcohol and a second […] wipe. Two incisions of approximately 1.5 cm in length were made at the implantation sites and subcutaneous pockets were created by blunt dissection in each location. 20 wt % Albumin hydrogels 184 (both PBSA and TBSA) were fabricated as described in the methods section 2.1 and were cut into disks (h=0.5 cm, r=0.6 cm) using a sterile biopsy punch. In one location, an acid leached 20 wt % PBSA gel disk was implanted into the subcutaneous pocket far from the incision site. At the other incision site, a 20 wt % TBSA gel disk was implanted. A control saline injection and pH 7.4 (20 wt %) BSA solution was injected into the back of the rat in the two remaining implantation sites. […]
# Chain of N-form albumin (TRP 213 atRA binding site) (P02768 25-609): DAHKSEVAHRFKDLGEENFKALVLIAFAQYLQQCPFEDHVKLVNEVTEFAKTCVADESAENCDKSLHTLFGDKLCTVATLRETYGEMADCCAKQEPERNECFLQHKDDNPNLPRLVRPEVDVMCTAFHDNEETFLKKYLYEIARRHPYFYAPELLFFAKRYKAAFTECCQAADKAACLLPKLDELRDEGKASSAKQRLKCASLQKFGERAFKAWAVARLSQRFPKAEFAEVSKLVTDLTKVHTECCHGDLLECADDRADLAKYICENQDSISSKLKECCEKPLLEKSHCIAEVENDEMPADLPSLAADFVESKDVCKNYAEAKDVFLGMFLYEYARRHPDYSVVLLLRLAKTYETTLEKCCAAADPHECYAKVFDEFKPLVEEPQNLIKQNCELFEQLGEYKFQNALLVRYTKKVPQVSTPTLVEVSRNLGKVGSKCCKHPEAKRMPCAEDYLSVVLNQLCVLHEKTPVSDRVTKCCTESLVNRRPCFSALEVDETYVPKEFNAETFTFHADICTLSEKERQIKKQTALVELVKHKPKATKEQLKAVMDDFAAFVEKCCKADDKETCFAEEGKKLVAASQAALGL
Compound,binding energy [1],HASMC migration [2],fluorescence quenching as a fraction of the initial fluorescence signal ([3]; N-form albumin compared with F-form albumin),"tryptophan fluorescence signal at 340 nm upon addition of atRA ([3]; N-form albumin, pH 7.4, excitation 295 nm)",tryptophan fluorescence signal at 340 nm upon addition of atRA [4],inflammatory response ([5]; 4 weeks),"inflammatory response (number of cells in the subcutaneous pocket) ([5]; 4 days, compared to saline control)"
"CC1=C(/C=C/C(C)=C/C=C/C(C)=C/C(=O)O)C(C)(C)CCC1 [atRA, All trans retinoic acid]",-7.58 kcal/mol,inhibited; also recorded: significant (p<0.05) reduction in cell migration,greater fluorescence quenching than F-form albumin,rapidly quenched,rapidly quenched,,
"BSA solution: control 20 wt % bovine serum albumin solution at pH 7.4, injected subcutaneously",,,,,,decreased significantly,increased general inflammatory response
